Biological target: Fibroblast growth factor 2 (Homo sapiens, UniProt P09038)
Experiment: Binding affinity to basic fibroblast growth factor (unknown origin) using sugar chip immobilized compound by surface plasmon resonance method; call rule not given here

Sequence of Fibroblast growth factor 2 (P09038 143-288 limits assumed): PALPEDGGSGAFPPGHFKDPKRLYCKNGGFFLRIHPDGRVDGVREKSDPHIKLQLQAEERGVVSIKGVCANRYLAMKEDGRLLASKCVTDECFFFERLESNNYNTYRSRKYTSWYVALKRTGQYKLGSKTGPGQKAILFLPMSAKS

Compound | Kd | Kd (read-out: Kd)
CC(=O)N[C@H]1[C@@H](OC[C@@H](O)[C@@H](O)[C@H](O)[C@@H](O)CNc2cccc(NC(=O)CCCCC3CCSS3)c2)O[C@H](CO)[C@H](O)[C@@H]1O[C@@H]1O[C@H](C(=O)[O-])[C@@H](O)[C@H](O)[C@H]1O.[Na+] (stereo partly specified) | Not Active | 
CC(=O)N[C@H]1[C@@H](OC[C@@H](O)[C@@H](O)[C@H](O)[C@@H](O)CNc2cccc(NC(=O)CCCCC3CCSS3)c2)O[C@H](CO)[C@H](OS(=O)(=O)O)[C@@H]1O[C@@H]1O[C@H](C(=O)O)[C@@H](O)[C@H](OS(=O)(=O)O)[C@H]1O (stereo partly specified) |  | 41 nM
CC(=O)N[C@H]1[C@@H](OC[C@@H](O)[C@@H](O)[C@H](O)[C@@H](O)CNc2cccc(NC(=O)CCCCC3CCSS3)c2)O[C@H](CO)[C@H](OS(=O)(=O)[O-])[C@@H]1O[C@@H]1O[C@H](C(=O)[O-])[C@@H](O)[C@H](O)[C@H]1O.[Na+].[Na+] (mixture of isomers) | Not Active | 
CC(=O)N[C@H]1[C@@H](OC[C@@H](O)[C@@H](O)[C@H](O)[C@@H](O)CNc2cccc(NC(=O)CCCCC3CCSS3)c2)O[C@H](COS(=O)(=O)O)[C@H](O)[C@@H]1O[C@@H]1O[C@H](C(=O)O)[C@@H](O)[C@H](O)[C@H]1O (mixture of isomers) |  | 36 nM
CC(=O)N[C@H]1[C@@H](OC[C@@H](O)[C@@H](O)[C@H](O)[C@@H](O)CNc2cccc(NC(=O)CCCCC3CCSS3)c2)O[C@H](CO)[C@H](O)[C@@H]1O[C@@H]1O[C@H](C(=O)O)[C@@H](O)[C@H](O)[C@H]1OS(=O)(=O)O (mixture of isomers) |  | 62 nM
CC(=O)N[C@H]1[C@@H](OC[C@@H](O)[C@@H](O)[C@H](O)[C@@H](O)CNc2cccc(NC(=O)CCCCC3CCSS3)c2)O[C@H](CO)[C@H](OS(=O)(=O)O)[C@@H]1O[C@@H]1O[C@H](C(=O)O)[C@@H](O)[C@H](O)[C@H]1OS(=O)(=O)O (mixture of isomers) |  | 41 nM
CC(=O)N[C@H]1[C@@H](OC[C@@H](O)[C@@H](O)[C@H](O)[C@@H](O)CNc2cccc(NC(=O)CCCCC3CCSS3)c2)O[C@H](COS(=O)(=O)O)[C@H](O)[C@@H]1O[C@@H]1O[C@H](C(=O)O)[C@@H](O)[C@H](OS(=O)(=O)O)[C@H]1O (mixture of isomers) |  | 147 nM
CC(=O)N[C@H]1[C@@H](OC[C@@H](O)[C@@H](O)[C@H](O)[C@@H](O)CNc2cccc(NC(=O)CCCCC3CCSS3)c2)O[C@H](CO)[C@H](O)[C@@H]1O[C@@H]1O[C@H](C(=O)O)[C@@H](O)[C@H](OS(=O)(=O)O)[C@H]1OS(=O)(=O)O (mixture of isomers) |  | 95 nM
CC(=O)N[C@H]1[C@@H](OC[C@@H](O)[C@@H](O)[C@H](O)[C@@H](O)CNc2cccc(NC(=O)CCCCC3CCSS3)c2)O[C@H](COS(=O)(=O)O)[C@H](OS(=O)(=O)O)[C@@H]1O[C@@H]1O[C@H](C(=O)O)[C@@H](O)[C@H](OS(=O)(=O)O)[C@H]1O (mixture of isomers) |  | 60 nM
CC(=O)N[C@H]1[C@@H](OC[C@@H](O)[C@@H](O)[C@H](O)[C@@H](O)CNc2cccc(NC(=O)CCCCC3CCSS3)c2)O[C@H](CO)[C@H](OS(=O)(=O)O)[C@@H]1O[C@@H]1O[C@H](C(=O)O)[C@@H](O)[C@H](OS(=O)(=O)O)[C@H]1OS(=O)(=O)O (mixture of isomers) |  | 52 nM
CC(=O)N[C@H]1[C@@H](OC[C@@H](O)[C@@H](O)[C@H](O)[C@@H](O)CNc2cccc(NC(=O)CCCCC3CCSS3)c2)O[C@H](COS(=O)(=O)O)[C@H](O)[C@@H]1O[C@@H]1O[C@H](C(=O)O)[C@@H](O)[C@H](OS(=O)(=O)O)[C@H]1OS(=O)(=O)O (mixture of isomers) |  | 99 nM

More lines, in order of falling Kd (read-out: Kd), values ahead:

Kd | Kd (read-out: Kd) | Compound
 | 25 nM | CC(=O)N[C@H]1[C@@H](OC[C@@H](O)[C@@H](O)[C@H](O)[C@@H](O)CNc2cccc(NC(=O)CCCCC3CCSS3)c2)O[C@H](CO)[C@H](O)[C@@H]1O[C@@H]1O[C@H](C(=O)O)[C@@H](O)[C@H](OS(=O)(=O)O)[C@H]1O (mixture of isomers)
 | 23 nM | CC(=O)N[C@H]1[C@@H](OC[C@@H](O)[C@@H](O)[C@H](O)[C@@H](O)CNc2cccc(NC(=O)CCCCC3CCSS3)c2)O[C@H](COS(=O)(=O)O)[C@H](O)[C@@H]1O[C@@H]1O[C@H](C(=O)O)[C@@H](O)[C@H](O)[C@H]1OS(=O)(=O)O (mixture of isomers)
 | 21 nM | CC(=O)N[C@H]1[C@@H](OC[C@@H](O)[C@@H](O)[C@H](O)[C@@H](O)CNc2cccc(NC(=O)CCCCC3CCSS3)c2)O[C@H](COS(=O)(=O)O)[C@H](OS(=O)(=O)O)[C@@H]1O[C@@H]1O[C@H](C(=O)O)[C@@H](O)[C@H](O)[C@H]1OS(=O)(=O)O (mixture of isomers)
 | 16 nM | CC(=O)N[C@H]1[C@@H](OC[C@@H](O)[C@@H](O)[C@H](O)[C@@H](O)CNc2cccc(NC(=O)CCCCC3CCSS3)c2)O[C@H](COS(=O)(=O)O)[C@H](OS(=O)(=O)O)[C@@H]1O[C@@H]1O[C@H](C(=O)O)[C@@H](O)[C@H](O)[C@H]1O (stereo partly specified)
 | 4.9 nM | CC(=O)N[C@H]1[C@@H](OC[C@@H](O)[C@@H](O)[C@H](O)[C@@H](O)CNc2cccc(NC(=O)CCCCC3CCSS3)c2)O[C@H](COS(=O)(=O)O)[C@H](OS(=O)(=O)O)[C@@H]1O[C@@H]1O[C@H](C(=O)O)[C@@H](O)[C@H](OS(=O)(=O)O)[C@H]1OS(=O)(=O)O (mixture of isomers)
